Measured values: article PMC10652111, “Zymograph profiling reveals a divergent evolution of sirtuin that may originate from class III enzymes” (The Journal of Biological Chemistry, 2023)

Molecular target: T1, STM1221 (Salmonella enterica, UniProt P0A2F2)
T1 construct: gene cobB; expressed from pET28b in E. coli BL21, nickel-purified
T1 sequence (P0A2F2 1-273): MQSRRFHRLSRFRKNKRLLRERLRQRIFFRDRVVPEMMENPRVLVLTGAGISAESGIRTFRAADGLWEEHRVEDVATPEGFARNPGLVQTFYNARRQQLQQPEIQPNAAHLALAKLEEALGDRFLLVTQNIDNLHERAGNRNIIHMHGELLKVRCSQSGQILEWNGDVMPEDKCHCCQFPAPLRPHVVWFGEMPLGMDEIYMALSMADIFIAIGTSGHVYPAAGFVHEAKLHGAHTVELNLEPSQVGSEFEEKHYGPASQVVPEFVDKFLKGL
Assay: HPLC deacylation assay
Format: biochemical
Settings: 1 mM NAD+, 1 mM acylated H3K27 13-mer peptide as co-substrate, 5 uM enzyme, 6 mM MgCl2, pH 8.0, 37 °C

`NC(=O)c1ccc[n+]([C@@H]2O[C@H](COP(=O)(O)OP(=O)(O)OC[C@H]3O[C@@H](n4cnc5c(N)ncnc54)[C@H](O)[C@@H]3O)[C@@H](O)[C@H]2O)c1` [NAD^+] was tested, and the HPLC deacylation assay was “The reactions without NAD^+ were used as the negative controls”.
